Data taken from EP0801071A1, “LEWIS X DERIVATIVE AND PROCESS FOR PRODUCING THE SAME” (SUMITOMO PHARMACEUTICALS COMPANY, LIMITED, priority 1994, dated 1996).

Biological target: T1, rsE-selectin (Homo sapiens, UniProt P16581)
T1 sequence (P16581 22-556 limits assumed): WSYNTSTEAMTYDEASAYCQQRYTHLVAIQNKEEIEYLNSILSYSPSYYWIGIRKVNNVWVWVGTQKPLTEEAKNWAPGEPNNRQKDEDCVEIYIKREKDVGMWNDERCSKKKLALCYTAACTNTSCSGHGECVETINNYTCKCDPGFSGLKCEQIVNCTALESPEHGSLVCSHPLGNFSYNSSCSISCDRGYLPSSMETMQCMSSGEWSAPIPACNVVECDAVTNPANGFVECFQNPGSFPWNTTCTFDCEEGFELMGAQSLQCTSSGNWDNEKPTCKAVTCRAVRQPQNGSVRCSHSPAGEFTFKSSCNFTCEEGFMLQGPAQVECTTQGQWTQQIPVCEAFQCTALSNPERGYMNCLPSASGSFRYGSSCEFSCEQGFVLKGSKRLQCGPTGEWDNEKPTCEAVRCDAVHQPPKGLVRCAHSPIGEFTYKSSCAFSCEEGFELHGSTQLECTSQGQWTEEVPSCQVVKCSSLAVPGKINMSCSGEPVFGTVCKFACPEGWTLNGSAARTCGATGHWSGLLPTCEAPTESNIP
Assay: Inhibition of adhesion of HL-60 cells to plate-coated rsE-selectin (Experiment 2)
Assay type: cell-based
Conditions: 50% inhibition concentration of adhesion of rsE-selectin to HL-60, from inhibition curves; medium-only well = 100%
Protocol: The DPBS solution containing rsE-selectin (3 µg/ml) was added to a 96 well plate at 50 µl/well, while wells filled with DPBS without rsE-selectin (non-specific adhesion control) were prepared on the same plate, and the plate was kept at room temperature for 3 hours. Then wells were washed 3 times with a DPBS/BSA solution at 200 µl/well, and DPBS/BSA solution was added at 200 µl/well, and the plate was kept at room temperature for 1 hour. After removing DPBS/BSA solution, a medium containing NWB or NWB plus a compound of the invention was added at 40 µl/well.
Frozen HL-60 cells were thawed promptly at 37°C, and washed with NWB cooled to 4°C 3 times by centrifugation at 1500rpm × 5 min. The cells were adjusted with NWB to 1×10^7 cells/ml, added to the plate at 20 µl/well, and the plate was kept at room temperature for 15 min.
The plate was set on a plate washer to remove nonadhesive HL-60 cells. The plate washer was set at slow mode, cycle 3 (washing 3 times), soak 0 sec., 12 rows (along vertical direction), and volume of NWB for 1 washing 200 µl/well at room temperature.
A citrate solution containing 0.1% NP-40 at room temperature was added at 50 µl/well, and the plate was kept at room temperature for 5 minutes. The substrate solution (4 mg OPDA, 4µl 30% H2O2/4 ml citrate) was added at 50 µl/well, protected from light with aluminum foil, allowed to develop color for 5 to 20 minutes, and the reaction was terminated by adding 4N-H2SO4 at 50µl/well. The substrate solution was used within 30 minutes after preparation.
The OD490 of each well was determined, and the OD490 value of the well for nonspecific adhesion was subtracted from the value of each well. The value found in a well containing only the medium was used as a control (100%) and the amount of adhesion in wells containing Compounds (15), (31), (33)-(40) or (41) of the invention was calculated by percent in terms of the values of the control. By drawing inhibition curves, 50% inhibition concentration (IC50) was determined.
The materials for the experiment were obtained from the following sources. rsE-selectin: producible by the method described in J. C. Poulson, J. Am. Chem. Soc., 117: 66-79 (1995). The sample of rsE-selectin used in the experiments was kindly supplied by the author. HL-60 : ATCC Corp. DPBS (Dulbecco Phosphate Buffered Saline) : GIBCO Corp. BSA (Bovine Serum Albumin) : Sigma Corp. HBSS (Hanks Balanced Salt Solution) : GIBCO Corp. OPDA (Ortho-phenylenediamine) : Sigma Corp. RPMI 1640 medium : GIBCO Corp. Bovine Fetal Serum : GIBCO Corp. Plate : Immulon. 2. (flat bottomed) : Dynatech Laboratories. Plate washer; Microplate Washer : Molecular Devices Corp.
A compound of the present invention was adjusted to 100mM with DPBS, and pH was adjusted to 7.1-7.4.
HL-60 was cultured in RPMI 1640 medium supplemented with 10% Bovine Fetal Serum. Using a cell freezing solution consisting of 80% RPMI 1640 medium + 10% Bovine Fetal Serum + 10% DMSO, HL-60 was frozen at 1.5 × 10^7 cells per a tube according to a conventional method, and stocked at -80°C. This was used under sterile condition.
Composition of DPBS/BSA was DPBS + 1% BSA.
Composition of NWB was HBSS + 10mM-HEPES + 0.2%glucose + 1%BSA+ 1mM-CaCl2. These two solutions are prepared under sterile condition.
The citrate solution was prepared by dissolving 2.33 g of citric acid and 9.20 g of Na2HPO4·12H2O in 500 ml of desalted water.

IC50	Compound
70 µM	CCCCCCCCCOc1c(OC)cc(CCCO[C@@H]2O[C@H](CO)[C@@H](O[C@@H]3O[C@H](CO)[C@H](O)[C@H](O[C@]4(C(=O)O)C[C@H](O)[C@@H](NC(C)=O)[C@H]([C@H](O)[C@H](O)CO)O4)[C@H]3O)[C@H](O[C@@H]3O[C@@H](C)[C@@H](O)[C@@H](O)[C@@H]3O)[C@H]2NC(=O)c2ccc3ccccc3c2)cc1OC [Compound 40, 3-(3,5-Dimethoxy-4-nonyloxyphenyl)propyl (5-acetamido-3,5-dideoxy-α-D-glycero-D-galacto-2-nonulopyra nosylonic acid)-(2→3)-O-(β-D-galactopyranosyl)-(1→4)-O-[α-L-fucopyranosyl-(1→3)-O]-(2-deoxy-2-naphthamido-β-D-glucopyranoside)]
150 µM	COc1cc(CCCO[C@@H]2O[C@H](CO)[C@@H](O[C@@H]3O[C@H](CO)[C@H](O)[C@H](O[C@]4(C(=O)O)C[C@H](O)[C@@H](NC(C)=O)[C@H]([C@H](O)[C@H](O)CO)O4)[C@H]3O)[C@H](O[C@@H]3O[C@@H](C)[C@@H](O)[C@@H](O)[C@@H]3O)[C@H]2NC(=O)c2ccc3ccccc3c2)cc(OC)c1OC [Compound 38, 3-(3,4,5-Trimethoxyphenyl)propyl (5-acetamido-3,5-dideoxy-α-D-glycero-D-galacto-2-nonulopyranosylonic acid)-(2→3)-O-(β-D-galactopyranosyl)-(1→4)-O-[α-L-fucopyranosyl-(1→3)-O]-(2-deoxy-2-naphthamido-β-D-glucopyra noside)]
150 µM	CCCCCCCCCOc1cc(CCCO[C@@H]2O[C@H](CO)[C@@H](O[C@@H]3O[C@H](CO)[C@H](O)[C@H](O[C@]4(C(=O)O)C[C@H](O)[C@@H](NC(C)=O)[C@H]([C@H](O)[C@H](O)CO)O4)[C@H]3O)[C@H](O[C@@H]3O[C@@H](C)[C@@H](O)[C@@H](O)[C@@H]3O)[C@H]2NC(=O)c2ccc3ccccc3c2)cc(OC)c1OC [Compound 39, 3-(4,5-Dimethoxy-3-nonyloxyphenyl)propyl (5-acetamido-3,5-dideoxy-α-D-glycero-D-galacto-2-nonulopyra nosylonic acid)-(2→3)-O-(β-D-galactopyranosyl)-(1→4) -O-[α-L-fucopyranosyl-(1→3)-O]-(2-deoxy-2-naphthamido-β-D-g lucopyranoside)]
110 µM	CC(=O)N[C@H]1[C@H]([C@H](O)[C@H](O)CO)O[C@@](O[C@H]2[C@@H](O)[C@@H](CO)O[C@@H](O[C@H]3[C@H](O[C@@H]4O[C@@H](C)[C@@H](O)[C@@H](O)[C@@H]4O)[C@@H](NC(=O)c4ccc5ccccc5c4)[C@H](OCCCCCCCCCCCCO)O[C@@H]3CO)[C@@H]2O)(C(=O)O)C[C@@H]1O [Compound 37, 12-Hydroxydodecyl (5-acetamido-3,5-dideoxy-α-D-glycero-D-galacto-2-nonulopyranosylonic acid)-(2→3)-O-(β-D-galactopyranosyl)-(1→4)-O-[α-L-fucopyranosyl-(1→3)-O]-(2-deoxy-2-naphthamido-β-D-glucopyranoside)]
110 µM	COc1cc(CCCO[C@@H]2O[C@H](CO)[C@@H](O[C@@H]3O[C@H](CO)[C@H](O)[C@H](O[C@]4(C(=O)O)C[C@H](O)[C@@H](NC(C)=O)[C@H]([C@H](O)[C@H](O)CO)O4)[C@H]3O)[C@H](O[C@@H]3O[C@@H](C)[C@@H](O)[C@@H](O)[C@@H]3O)[C@H]2NC(=O)c2ccccc2)cc(OC)c1OC [Compound 41, 3-(3,4,5-Trimethoxyphenyl)propyl (5-acetamido-3,5-dideoxy-α-D-glycero-D-galacto-2-nonulopyranosylonic acid)-(2→3)-O-(β-D-galactopyranosyl)-(1→4)-O-[α-L-fucopyranosyl-(1→3)-O]-(2-deoxy-2-benzamido-β-D-glucopyranoside)]

The remaining lines, values behind:

Compound	IC50
CC(=O)N[C@H]1[C@H]([C@H](O)[C@H](O)CO)O[C@@](O[C@H]2[C@@H](O)[C@@H](CO)O[C@@H](O[C@H]3[C@H](O[C@@H]4O[C@@H](C)[C@@H](O)[C@@H](O)[C@@H]4O)[C@@H](NC(=O)c4ccc5ccccc5c4)[C@H](OCCCc4ccccc4)O[C@@H]3CO)[C@@H]2O)(C(=O)O)C[C@@H]1O [Compound 36, 3-Phenylpropyl (5-acetamido-3,5-dideoxy-α-D-glycero-D-galacto-2-nonulopyranosylonic acid)-(2→3)-O-(β-D-galactopyranosyl)-(1→4)-O-[α-L-fucopyranosyl-(1→3)-O]-(2-deoxy-2-naphthamido-β-D-glucopyranoside)]	110 µM
CC(=O)N[C@H]1[C@H]([C@H](O)[C@H](O)CO)O[C@@](O[C@H]2[C@@H](O)[C@@H](CO)O[C@@H](O[C@H]3[C@H](O[C@@H]4O[C@@H](C)[C@@H](O)[C@@H](O)[C@@H]4O)[C@@H](NC(=O)c4ccc5ccccc5c4)[C@H](OCCOCCOCCO)O[C@@H]3CO)[C@@H]2O)(C(=O)O)C[C@@H]1O [Compound 34, 2-[2-(2-Hydroxyethoxy)ethoxy]ethyl (5-acetamido-3,5-dideoxy-α-D-glycero-D-galacto-2-nonulopyra nosylonic acid)-(2→3)-O-(β-D-galactopyranosyl)-(1→4)-O-[α-L-fucopyranosyl-(1→3)-O]-(2-deoxy-2-paphthamido-β-D-glucopyranoside)]	110 µM
CC(=O)N[C@H]1[C@H]([C@H](O)[C@H](O)CO)O[C@@](O[C@H]2[C@@H](O)[C@@H](CO)O[C@@H](O[C@H]3[C@H](O[C@@H]4O[C@@H](C)[C@@H](O)[C@@H](O)[C@@H]4O)[C@@H](NC(=O)c4ccc5ccccc5c4)[C@H](OCCOCc4ccccc4)O[C@@H]3CO)[C@@H]2O)(C(=O)O)C[C@@H]1O [Compound 33, 2-Benzyloxyethyl (5-acetamido-3,5-dideoxy-α-D-glycero-D-galacto-2-nonulopyranosylonic acid)-(2→3)-O-(β-D-galactopyranosyl)-(1→4)-O-[α-L-fucopyranosyl-(1→3)-O ]-(2-deoxy-2-naphthamido-β-D-glucopyranoside)]	210 µM
